From US8372799B2, “Reverse protein” (Apeptico Forschung und Entwicklung GmbH, priority 2007, dated 2013)
Where a SMILES comes first, the peptide text is derived from it. Bridges are numbered along the chain shown (N, C = ends).

System: Interleukin-6 (IL-6)
Assay: Determination of inflammatory parameters: Interleukin-6 release in human fresh blood (ELISA)
Assay type: cell-based
Conditions: for inflammatory proteins such as the inflammation marker Interleukin-6 (IL-6): human immune cells from the blood, protein at a small concentration; for Concentration of Interleukin-6 (average of three measurements): human fresh blood, 24 hours at 37° C.
Experimental: For the examination, human immune cells from the blood are mixed with protein according to the present invention at a small concentration and are incubated in a manner common in laboratories. Subsequently, marker proteins for inflammations are determined by conventional methods.
Fresh human blood has a very sensitive reaction to pro-inflammatory molecules, among other things, with a release of the inflammation marker Interleukin-6 (IL-6). For determining the pro-inflammatory reaction, samples of human fresh blood with different concentrations of the protein comprising amino acid sequence SEQ ID NO:3 were incubated at the following concentrations: 10 μg/ml, 3 μg/ml, 1 μg/ml. After an incubation of 24 hours at 37° C., the inflammation marker Interleukin-6 was quantitatively determined in the solution via ELISA. LPS served as a positive control.

Row | Compound | inflammatory proteins such as the inflammation marker Interleukin-6 (IL-6) | Concentration of Interleukin-6 (average of three measurements) (1 μg/ml) | Concentration of Interleukin-6 (average of three measurements) (10 μg/ml) | Concentration of Interleukin-6 (average of three measurements) (1 nμg/ml) | Concentration of Interleukin-6 (average of three measurements) (3 nμg/ml)
1 | CC[C@H](C)[C@H](NC(=O)[C@H](C)N)C(=O)N[C@@H](CCCCN)C(=O)N[C@@H](CO)C(=O)N1CCC[C@H]1C(=O)N[C@H]1CSSC[C@@H](C(=O)N2CCC[C@H]2C(=O)N[C@@H](CO)C(=O)N[C@H](C(=O)N[C@@H](Cc2c[nH]cn2)C(=O)N[C@H](C(=O)O)C(C)C)[C@@H](C)O)NC(=O)CNC(=O)CNC(=O)[C@H](CCCCN)NC(=O)[C@H](C)NC(=O)[C@H](CCC(=O)O)NC(=O)[C@H](C)NC(=O)CNC(=O)[C@H](CCC(=O)O)NC(=O)[C@@H]2CCCN2C(=O)[C@H]([C@@H](C)O)NC(=O)[C@H](CCC(=O)O)NC(=O)[C@H](CCCNC(=N)N)NC(=O)[C@H](CCC(N)=O)NC1=O [SEQ ID NO:1] (H-AIKSPCQRETPEGAEAKGGCPSTHV-OH; disulfide 6-20) | cannot be detected | – | – | – | –
2 | C[C@@H]1NC(=O)CNC(=O)[C@H](CCC(=O)O)NC(=O)[C@@H]2CCCN2C(=O)[C@H]([C@@H](C)O)NC(=O)[C@H](CCC(=O)O)NC(=O)[C@H](CCCNC(=N)N)NC(=O)[C@H](CCC(N)=O)NC(=O)[C@@H](NC(=O)[C@@H]2CCCN2C(=O)[C@H](CO)NC(=O)[C@@H](N)CCCCN)CSSC[C@@H](C(=O)N2CCC[C@H]2C(=O)N[C@@H](CO)C(=O)O)NC(=O)CNC(=O)CNC(=O)[C@H](CCCCN)NC(=O)[C@H](C)NC(=O)[C@H](CCC(=O)O)NC1=O [SEQ ID NO:2] (H-KSPCQRETPEGAEAKGGCPS-OH; disulfide 4-18) | cannot be detected | – | – | – | –
3 | C[C@@H]1NC(=O)CNC(=O)[C@H](CCC(=O)O)NC(=O)[C@@H]2CCCN2C(=O)[C@H]([C@@H](C)O)NC(=O)[C@H](CCC(=O)O)NC(=O)[C@H](CCCNC(=N)N)NC(=O)[C@H](CCC(N)=O)NC(=O)[C@@H](N)CSSC[C@@H](C(=O)O)NC(=O)CNC(=O)CNC(=O)[C@H](CCCCN)NC(=O)[C@H](C)NC(=O)[C@H](CCC(=O)O)NC1=O [SEQ ID NO:3, (NH2)Cys-Gln-Arg-Glu-Thr-Pro-Glu-Gly-Ala-Glu-Ala-Lys-Gly-Gly-Cys(COOH)] (H-CQRETPEGAEAKGGC-OH; disulfide 1-15) | cannot be detected | less than 0.5 pg/ml | less than 0.5 pg/ml | less than 0.5 pg/ml | less than 0.5 pg/ml
